Experimental data: ChEMBL document CHEMBL2417441, “Synthesis, structure, and cytotoxicity studies of some fungal isochromanes” (J Nat Prod, 2013)
Active and inactive are the calls of the source. No cut-off for these calls is given here.

What was measured:
HCT-116 [1] = assay: Cytotoxicity against human HCT116 cells after 72 hrs by WST-8 assay; format: functional, cell-based; settings: HCT-116, 72 h
HCT-116 [2] = assay: Induction of apoptosis in human HCT116 cells assessed as DNA fragmentation at 5 uM after 72 hrs by TUNEL assay; format: functional, cell-based
HCT-116 [3] = assay: Induction of apoptosis in human HCT116 cells at 5 uM after 72 hrs by fluorescence microscopic analysis relative to etoposide; format: functional

| SMILES | IC50 (HCT-116 [1]) | Activity (HCT-116 [2]) | fold change (FC) (HCT-116 [3]) |
| --- | --- | --- | --- |
| CC(C)=C1Oc2c(ccc3c2C(=O)O[C@H](C)C3)C1=O | 9.8 µM | – | – |
| CC(C)[C@@H]1Oc2c(ccc3c2[C@@H](O)O[C@H](C)C3)C1=O | > 100 µM | – | – |
| CO[C@H]1O[C@H](C)Cc2ccc3c(c21)O[C@H](C(C)C)C3=O | > 100 µM | – | – |
| CC(C)[C@H]1Oc2c(ccc3c2[C@@H](O)O[C@H](C)C3)C1=O | > 100 µM | – | – |
| C[C@@H](O)Cc1cccc(O)c1CO | > 100 µM | – | – |
| CO[C@H]1O[C@H](C)Cc2ccc3c(c21)O[C@@H](C(C)C)C3=O (relative stereo) | > 100 µM | – | – |
| CC(C)=C1Oc2c(ccc3c2[C@@H](O)O[C@H](C)C3)C1=O [(+)-PSEUDODEFLECTUSIN] | 5 µM | Active | 2 |
| CC[C@@]1(O)C(=O)OCc2c1cc1n(c2=O)Cc2cc3ccccc3nc2-1 [CAMPTOTHECIN] | 0.016 µM | – | – |
| CO[C@H]1O[C@H](C)Cc2ccc3c(c21)OC(=C(C)C)C3=O [USTUSORANE C] | 5.9 µM | – | – |
